Read-outs that look alike come from different tables or passages of the source. Ends that are not written are not given here.
Key:
guinea-pig platelets = test: Guinea-pig platelet aggregation assay; type: cell-based; conditions: for Platelet Aggreg (threshold concentration producing visible platelet aggregation): guinea-pig platelets, threshold response
Protocol: This assay was performed on platelets obtained from the arterial blood of anesthetized male Hartley guinea pigs according to previously published methods (Ember et al., 1992, supra). Briefly, platelet-rich plasma was prepared and diluted to 3×10^8 platelets/ml in 0.39% sodium citrate solution. Peptide samples were diluted in a stepwise fashion in 1.5-fold dilutions and placed in 96-well microplates. A […] peptide sample, […] of platelet-rich plasma, and one 3 mm glass bead were placed in each well. The plates were shaken horizontally at 100 rpm for 5 min at 37° C. Platelet aggregation was evaluated visually in an inverted microscope at 40× magnification. The greatest dilution of peptide producing visible aggregation was scored as the threshold concentration for activity. Natural C5a and C3a were included as internal standards. At least three independent duplicate determinations were conducted for every peptide.

human fetal artery = target: T1, human fetal artery (Homo sapiens, UniProt P21730); test: Smooth muscle contraction of human fetal artery (spasmogenic assay); type: cell-based; conditions: for log potency ratio at the EC50 level compared to C5a / % of C5a potency: fetal artery; for % of C5a potency: from log potency ratio at EC50 level
T1 sequence (P21730 1-350): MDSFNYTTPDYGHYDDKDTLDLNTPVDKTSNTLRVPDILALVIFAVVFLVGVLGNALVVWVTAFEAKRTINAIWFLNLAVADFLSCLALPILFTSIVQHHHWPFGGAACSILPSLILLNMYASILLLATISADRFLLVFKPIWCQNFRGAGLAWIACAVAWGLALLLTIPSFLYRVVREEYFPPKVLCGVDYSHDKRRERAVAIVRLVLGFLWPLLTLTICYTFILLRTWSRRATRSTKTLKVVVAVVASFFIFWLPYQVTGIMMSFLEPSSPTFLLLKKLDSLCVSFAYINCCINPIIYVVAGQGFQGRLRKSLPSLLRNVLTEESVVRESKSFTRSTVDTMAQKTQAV
Protocol: (§1) Tissue strips were suspended in 2 ml organ baths, containing physiological salt solution (Krebs-Ringers solution: 118 mM NaCl, 4.7 mM KCl, 2.5 mM CaCl2, 25 mM NaHCO3, 1.2 mM KH2PO4, 1.2 mM MgSO4, 10 mM Glucose) maintained at 37° C., pH 7.4 and continuously aerated with a 95% CO2 mixture. Each tissue preparation was equilibrated for 1 hr prior to testing with peptides. All drugs were kept on ice during the procedure and isometric tensions were measured using strain-gauge transducers (Grass FT-03) with a computerized chart recording system (MacLab/8). After the contraction to each peptide reached a plateau, histamine (10 μM) was added to obtain the maximum tissue response. Because tachyphylaxis occurs rapidly to single doses of C5a or peptides, cumulative dose-response curves could not be obtained. Instead, the dose-response profile was compiled from multiple strips from each tissue. After exposing each strip to a single concentration of the peptide followed by supramaximal histamine, the response was expressed as a percentage of the maximal contraction to histamine. Full dose-response curves for C5a (human recombinant C5a; Sigma) or individual peptides were performed in each experiment for each tissue and the EC50 values (i.e., concentration of peptide producing 50t of the maximal response to each peptide) obtained by probit analysis. pD2 transforms [−log EC50 (M)] were calculated for each dose-response curve, and means ±SE obtained for each peptide.
Human umbilical cords were obtained from the Mater Misericordiae Hospital, South Brisbane, Queensland within minutes of delivery. The mid-section of the umbilical cord was cut from the placenta, placed in physiological salt solution and stored at 5° C. for up to 24 hrs. […] The fetal arteries were dissected out and cut into longitudinal strips. The intimal surface of the arteries was rubbed with a cotton bud to remove the endothelium. Strips approximately 2 cm×3 mm were suspended in organ baths under 20 mN of resting tension. Arterial strips were tested repeatedly with peptides following a 60 min drug-free period of rest between assays (Taylor et al. (1994), Inflammation, in press).

human neutrophils (PMN) [1] = target: T2, human neutrophils (PMN) (Homo sapiens, UniProt P21730); type: cell-based; conditions: human neutrophils, β-glucuronidase release; read-out: PMN Enzyme Release EC50
T2 sequence (P21730 1-350): T1 sequence (P21730 1-350)
Protocol: The release of glucuronidase from human neutrophils was determined as described by Schroder et al. (1987), J. Immunol., 139: 3474-3483. Briefly, human neutrophils were pretreated with cytochalasin B (5 μg/ml, 10 min, 37° C.). The cells (10^6) were incubated in the presence of stimulants for 60 minutes at 37° C. in a final volume of 200 μl and then centrifuged. The supernatant was collected and 50 μl were incubated with 50 μl of 0.01 M P-nitrophenyl-β-D-glucuronide (in 0.1 M sodium acetate at pH 4 for 18 h) as triplicate determinations in 96-well microtiter plates (Corning). The reaction was stopped by addition of 100 μl of 0.4 M gly buffer at pH 10. The reaction developed color that was read at 405 nm in a Titertec Multiscan (MCC/340) ELISA reader. The β-glucuronidase released was expressed as the percentage of total enzyme in the cell that could be released by addition of 0.2% Triton X-100 (Pierce).

[2] = tested on: guinea-pig lung parenchyma; test: Smooth muscle contraction of guinea-pig lung parenchyma; type: cell-based; conditions: arithmetic mean
Protocol: as §1, with “Each” for “Tissue strips were suspended in 2 ml organ baths, containing physiological salt solution (Krebs-Ringers solution: 118 mM NaCl, 4.7 mM KCl, 2.5 mM CaCl2, 25 mM NaHCO3, 1.2 mM KH2PO4, 1.2 mM MgSO4, 10 mM Glucose) maintained at 37° C., pH 7.4 and continuously aerated with a 95% CO2 mixture. Each”

human neutrophils (PMN) [3] = target: T2, human neutrophils (PMN); type: cell-based; conditions: human neutrophils; read-out: PMN Polarization EC50
Protocol: Neutrophil polarization assays were conducted as described by Ember et al., 1992, supra. Human neutrophils (PMN) were prepared according to the procedure described by Dahinden et al. (1979), J. Immunol., 130: 857-862. The assay for measuring the effect of C5a analogs on PMN polarization was described by Haston & Shields (1985), J. Immunol. Methods, 81: 229-237. Briefly, PMN (1×10^6 cells/ml) were suspended in 10 mM 3- (N-morpholino) propane sulfonic acid (Sigma Chemical Co.) containing EBSS. […] After 10 minutes of incubation at room temperature, the cells were washed twice and stored until microscopic examination. Cells deviating from the typical spherical shape were visually scored as polarized. Results are expressed as percent of polarized cells per total cells counted (300 cells counted/sample).

serum carboxypeptidases = test: Stability toward serum carboxypeptidases (incubation in normal human serum, HPLC); type: in vitro ADME; conditions: 37° C., 1 h
Protocol: FIG. 10. HPLC profiles of decapeptide analogs. FIG. 10A: HPLC of […] (peptide/Sequence I.D. No. 2); a=purified peptide; b=des-Arg peptide ([…]; Sequence I.D. No. 24); c=des-Arg peptide in saline, no incubation; d=des-Arg peptide in saline with incubation for 1 h at 37° C.; e=des-Arg peptide in normal human serum with incubation for 1 h at 37° C. FIG. 10B: HPLC of […]aR (Sequence I.D. No. 10); a=purified peptide; b=peptide in saline, no incubation; c=peptide in saline with incubation for 1 h at 37° C.; d=peptide in normal human serum with incubation for 1 h at 37° C. Solvent system 1: 70 mM triethylamine/phosphoric acid buffer, pH-2.3. Solvent system 2: 60% acetonitrile in the Solvent 1 buffer. Linear gradient of 30-50% solvent 2 at.1%/min, slope=1 ml/min, absorbance monitored at 214 nm.
Both peptides were incubated in normal human serum at 37° C. for 1 h and thereafter reanalyzed on HPLC.

YSFKDMQLGR-OH [peptide 2]
Platelet Aggreg (threshold concentration producing visible platelet aggregation) (guinea-pig platelets): 22.9 µM | log potency ratio at the EC50 level compared to C5a (human fetal artery): 2.78±0.10 | % of C5a potency (human fetal artery): 0.2% | potency relative to the C-terminal 19-mer of natural sequence (human fetal artery; smooth muscle contraction of human fetal artery (FIG. 1)): about 20 times | EC50 (human neutrophils (PMN) [1]): 50 µM | EC50 [2]: 28.4 µM | EC50 (human neutrophils (PMN) [3]): 4 µM

CSCC[C@H](NC(=O)[C@H](CC(=O)O)NC(=O)[C@H](CCCCN)NC(=O)[C@H](Cc1ccccc1)NC(=O)[C@H](CO)NC(=O)[C@@H](N)Cc1ccc(O)cc1)C(=O)N1CCC[C@H]1C(=O)N[C@@H](CC(C)C)C(=O)N[C@H](C)C(=O)N[C@@H](CCCNC(=N)N)C(=O)O [peptide 10]
Platelet Aggreg (threshold concentration producing visible platelet aggregation) (guinea-pig platelets): 1.3 µM | potency relative to peptide 2 in platelet aggregation (guinea-pig platelets; more potent than peptide 2): about 18 fold | log potency ratio at the EC50 level compared to C5a (human fetal artery): 1.42±0.13 | % of C5a potency (human fetal artery): 4% | potency relative to peptide 2 in spasmogenic activity (human fetal artery; more potent than peptide 2): about 32 fold | EC50 (human neutrophils (PMN) [1]): 57.7 µM | cleavage of the C-terminal Arg (serum carboxypeptidases): none | EC50 (human neutrophils (PMN) [3]): 2.1 µM

Source: patent publication US6465614B1, “High-affinity response-selective C-terminal analogs of C5a anaphylatoxin” (priority 1994, dated 2002)
